Results taken from ChEMBL document CHEMBL1201862, “PubChem BioAssay data set” (2004).
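Five compound concentrations were applied to cells in 96-well plates for 48 hours; endpoints were derived by simple linear interpolation of the resulting dose-response curve. GI50 marks 50% less growth.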 Activity calls are given as the source filed them. Rule as the data show it: active = GI50 up to about 1.1 µM and inactive = higher.

How the values were obtained:
Experiment in all cases: DTP human tumour cell line panel, 48 h
[1] = system: SNB-19
[2] = system: K562
[3] = system: HOP-92
[4] = system: DU-145
[5] = system: UACC-257
[6] = system: BT-549
[7] = system: Hs-578T
[8] = system: RPMI-8226
[9] = system: SF-295
[10] = system: SK-MEL-2
[11] = system: SK-OV-3
[12] = system: IGROV-1
[13] = system: OVCAR-5
[14] = system: NCI/ADR-RES
[15] = system: OVCAR-8
[16] = system: M14
[17] = system: NCI-H23
[18] = system: NCI-H522
[19] = system: SF-268

Compound | GI50 [1] | GI50 [2] | GI50 [3] | GI50 [4] | GI50 [5] | GI50 [6] | GI50 [7] | GI50 [8] | GI50 [9] | GI50 [10] | GI50 [11] | GI50 [12] | GI50 [13] | GI50 [14] | GI50 [15] | GI50 [16] | GI50 [17] | GI50 [18] | GI50 [19]
CN(C)CCNC1=C(Cl)C(=O)c2c(O)ccc(O)c2C1=O | 1.95 µM (inactive) | 2.76 µM (inactive) | 2.17 µM (inactive) | 1.94 µM (inactive) | 1.72 µM (inactive) | 1.72 µM (inactive) | 2.99 µM (inactive) | 2.65 µM (inactive) | 2.12 µM (inactive) | 2.1 µM (inactive) | 18.2 µM (inactive) | 1.6 µM (inactive) | 1.74 µM (inactive) | 3.12 µM (inactive) | 1.9 µM (inactive) | 1.95 µM (inactive) | 2.18 µM (inactive) | 1.79 µM (inactive) | 17.1 µM (inactive)
C=C(Cl)C(C)(Cl)CCC(Cl)C(C)C (stereo not drawn) | > 100 µM (inactive) | 51.5 µM (inactive) | 87.1 µM (inactive) | > 100 µM (inactive) | > 100 µM (inactive) | > 100 µM (inactive) | > 100 µM (inactive) | 48.6 µM (inactive) | > 100 µM (inactive) | > 100 µM (inactive) | 29.6 µM (inactive) | > 100 µM (inactive) | > 100 µM (inactive) | > 100 µM (inactive) | – | 57.7 µM (inactive) | > 100 µM (inactive) | 37 µM (inactive) | > 100 µM (inactive)
COc1ccc2c(c1)-c1nc(=S)n(CCN(C)C)c3ccc([N+](=O)[O-])c(c13)N2 | 0.828 µM (active) | 0.389 µM (active) | 6.61 µM (inactive) | 0.923 µM (active) | 1 µM (active) | 10.3 µM (inactive) | 1.37 µM (inactive) | 0.573 µM (active) | 0.794 µM (active) | 7.31 µM (inactive) | 0.57 µM (active) | 0.832 µM (active) | 3.13 µM (inactive) | 1.09 µM (active) | 0.484 µM (active) | 2.94 µM (inactive) | 1.16 µM (inactive) | 0.533 µM (active) | 0.671 µM (active)
Cc1c2ccccc2c(C)n2c1nc1cc3ccccc3cc12 | 1.54 µM (inactive) | 2.91 µM (inactive) | 0.00215 µM (active) | 1.3 µM (inactive) | 3.3 µM (inactive) | 1.84 µM (inactive) | 1.25 µM (inactive) | 2.2 µM (inactive) | 1.06 µM (active) | 1.61 µM (inactive) | 2.45 µM (inactive) | 1.04 µM (active) | 1.02 µM (active) | 0.897 µM (active) | 1.04 µM (active) | 1.38 µM (inactive) | 1.29 µM (inactive) | 1.74 µM (inactive) | 1.34 µM (inactive)
CC(C)(C(=O)N(C(=O)N1CCN(c2ccccc2)CC1)S(=O)(=O)c1ccccc1)c1ccc(Cl)cc1 | 20.5 µM (inactive) | 5.68 µM (inactive) | 5.43 µM (inactive) | 58.5 µM (inactive) | 46.7 µM (inactive) | 30.7 µM (inactive) | 39.1 µM (inactive) | 6.95 µM (inactive) | 8.63 µM (inactive) | 21.3 µM (inactive) | 24 µM (inactive) | – | 42.2 µM (inactive) | 6.92 µM (inactive) | 16.6 µM (inactive) | 31.3 µM (inactive) | 16.3 µM (inactive) | 4.32 µM (inactive) | 34.4 µM (inactive)
Cc1ncc([N+](=O)[O-])n1CCNS(=O)(=O)CCCn1ncnc1[N+](=O)[O-] | – | > 100 µM (inactive) | > 100 µM (inactive) | > 100 µM (inactive) | > 100 µM (inactive) | > 100 µM (inactive) | > 100 µM (inactive) | > 100 µM (inactive) | > 100 µM (inactive) | > 100 µM (inactive) | > 100 µM (inactive) | > 100 µM (inactive) | > 100 µM (inactive) | > 100 µM (inactive) | > 100 µM (inactive) | > 100 µM (inactive) | > 100 µM (inactive) | > 100 µM (inactive) | > 100 µM (inactive)
CS(=O)(=O)Nc1ccc(Nc2ccnc3ccc4[nH]ccc4c23)cc1 | 6.52 µM (inactive) | 6.64 µM (inactive) | 8.36 µM (inactive) | 9.93 µM (inactive) | 15.6 µM (inactive) | 19.7 µM (inactive) | 21.8 µM (inactive) | 21 µM (inactive) | 24.5 µM (inactive) | 10.3 µM (inactive) | 19.5 µM (inactive) | 20 µM (inactive) | 26.3 µM (inactive) | > 100 µM (inactive) | 7.96 µM (inactive) | 16.1 µM (inactive) | 16.3 µM (inactive) | 6.4 µM (inactive) | 5.13 µM (inactive)
N#CCCN(CCC#N)c1ccc(C(=N/c2ccc(F)cc2)/N=N/c2ccccc2)cc1 | > 100 µM (inactive) | > 100 µM (inactive) | > 100 µM (inactive) | > 100 µM (inactive) | 60.5 µM (inactive) | 34 µM (inactive) | > 100 µM (inactive) | > 100 µM (inactive) | 32.8 µM (inactive) | 93.3 µM (inactive) | > 100 µM (inactive) | > 100 µM (inactive) | > 100 µM (inactive) | > 100 µM (inactive) | > 100 µM (inactive) | > 100 µM (inactive) | 96.8 µM (inactive) | 21.7 µM (inactive) | > 100 µM (inactive)
CC(C)C(OC(=O)c1cc(NC(=S)c2ccccc2)ccc1Cl)C(C)C | 38.4 µM (inactive) | 25.7 µM (inactive) | 8.39 µM (inactive) | 24.2 µM (inactive) | 13.7 µM (inactive) | 20.8 µM (inactive) | 21.1 µM (inactive) | 13.3 µM (inactive) | 4.53 µM (inactive) | 16 µM (inactive) | 32.4 µM (inactive) | 33 µM (inactive) | 42.7 µM (inactive) | 16.3 µM (inactive) | 22.9 µM (inactive) | 31.7 µM (inactive) | 6.5 µM (inactive) | 8.51 µM (inactive) | 23 µM (inactive)
COc1c2c(cc3c1OCO3)C13C=CC(OC)CC1N(CC3)C2.[O-][Cl+3]([O-])([O-])O (stereo not drawn) | > 100 µM (inactive) | – | > 100 µM (inactive) | > 100 µM (inactive) | > 100 µM (inactive) | > 100 µM (inactive) | > 100 µM (inactive) | > 100 µM (inactive) | > 100 µM (inactive) | > 100 µM (inactive) | > 100 µM (inactive) | > 100 µM (inactive) | > 100 µM (inactive) | > 100 µM (inactive) | > 100 µM (inactive) | > 100 µM (inactive) | > 100 µM (inactive) | > 100 µM (inactive) | > 100 µM (inactive)
Cc1nc2cc([N+](=O)[O-])ccc2c(NCCCN(C)C)c1C | – | 3.77 µM (inactive) | 1.95 µM (inactive) | 21.7 µM (inactive) | 5.45 µM (inactive) | 11.8 µM (inactive) | 20 µM (inactive) | 12.9 µM (inactive) | 17.3 µM (inactive) | 10.5 µM (inactive) | 31.5 µM (inactive) | 3.22 µM (inactive) | 13.2 µM (inactive) | 16.3 µM (inactive) | 11.5 µM (inactive) | 13.8 µM (inactive) | 4.03 µM (inactive) | 3.61 µM (inactive) | 20.3 µM (inactive)
COc1ccc(N2C(=O)C3c4[nH]c5ccc(OC)cc5c4C4CCC(c5ccccc5)CC4C3C2=O)cc1 (stereo not drawn) | 11.9 µM (inactive) | 7.67 µM (inactive) | 16.7 µM (inactive) | 29.9 µM (inactive) | 17.3 µM (inactive) | 19.6 µM (inactive) | 1.6 µM (inactive) | 6.25 µM (inactive) | 7.73 µM (inactive) | 20.3 µM (inactive) | 12.2 µM (inactive) | 16.1 µM (inactive) | 20.6 µM (inactive) | 12.6 µM (inactive) | 7.48 µM (inactive) | 14.8 µM (inactive) | 17.5 µM (inactive) | 7.89 µM (inactive) | 8.63 µM (inactive)
CN(C)/C=C(\C(=O)c1ccccc1)n1nc(-c2ccccc2)cc1-c1ccccc1 | > 10 µM (inactive) | – | 7.38 µM (inactive) | > 10 µM (inactive) | > 10 µM (inactive) | > 10 µM (inactive) | > 10 µM (inactive) | > 10 µM (inactive) | > 10 µM (inactive) | > 10 µM (inactive) | > 10 µM (inactive) | > 10 µM (inactive) | > 10 µM (inactive) | > 10 µM (inactive) | > 10 µM (inactive) | > 10 µM (inactive) | > 10 µM (inactive) | > 10 µM (inactive) | > 10 µM (inactive)
C[Si](C)(c1ccccc1)[C@H]1CCCC=C1CCNC1c2ccccc2CCc2ccccc21 | > 100 µM (inactive) | 52.1 µM (inactive) | 23.7 µM (inactive) | > 100 µM (inactive) | 52.4 µM (inactive) | > 100 µM (inactive) | > 100 µM (inactive) | 46.8 µM (inactive) | 40.6 µM (inactive) | > 100 µM (inactive) | > 100 µM (inactive) | 49.7 µM (inactive) | > 100 µM (inactive) | 76.2 µM (inactive) | > 100 µM (inactive) | 56.5 µM (inactive) | 61.5 µM (inactive) | 50.8 µM (inactive) | > 100 µM (inactive)
O=C1c2ccccc2S(=O)(=O)c2cc(-c3nn[nH]n3)ccc21 [DOXANTRAZOLE] | > 100 µM (inactive) | > 100 µM (inactive) | > 100 µM (inactive) | > 100 µM (inactive) | > 100 µM (inactive) | > 100 µM (inactive) | > 100 µM (inactive) | – | > 100 µM (inactive) | > 100 µM (inactive) | > 100 µM (inactive) | > 95.3 µM (inactive) | > 100 µM (inactive) | > 100 µM (inactive) | > 100 µM (inactive) | > 100 µM (inactive) | > 100 µM (inactive) | > 100 µM (inactive) | > 100 µM (inactive)
